Measurements reported in ChEMBL document CHEMBL1134270, “Optimization of 4-phenylamino-3-quinolinecarbonitriles as potent inhibitors of Src kinase activity” (J Med Chem, 2001).

Assays:
Rattus norvegicus = organism: Rattus norvegicus; experiment: Ability to inhibit the proliferation of c-Src transformed rat fibroblasts growing in suspension; format: functional
[1] = target: Proto-oncogene tyrosine-protein kinase Src (Homo sapiens, UniProt P12931); experiment: Inhibition against Src kinase
[2] = plasma concentration of compound at four hours after the of intraperitoneal administration of 50 mg/kg; format: ADME, organism-based; set-up: dose 50 mg/kg, route intraperitoneal; conditions: ip
[3] = plasma concentration of compound at one hour after the of intraperitoneal administration of 50 mg/kg; format: ADME, organism-based; set-up: dose 50 mg/kg, route intraperitoneal; conditions: ip
HT-29 = experiment: Inhibition of HT-29 cell monolayer proliferation at 5 uM; format: functional, cell-based; conditions: Homo sapiens
[4] = target: Platelet-derived growth factor receptor (PDGFr) (Rattus norvegicus, UniProt P20786+Q05030); experiment: Inhibition of PDGF receptor transfected rat1A cell proliferation; format: functional
[5] = plasma concentration of compound at four hour after the of intraperitoneal administration of 50 mg/kg; format: ADME, organism-based; set-up: dose 50 mg/kg, route intraperitoneal; conditions: ip

Proto-oncogene tyrosine-protein kinase Src, sequence (P12931 2-536 limits assumed): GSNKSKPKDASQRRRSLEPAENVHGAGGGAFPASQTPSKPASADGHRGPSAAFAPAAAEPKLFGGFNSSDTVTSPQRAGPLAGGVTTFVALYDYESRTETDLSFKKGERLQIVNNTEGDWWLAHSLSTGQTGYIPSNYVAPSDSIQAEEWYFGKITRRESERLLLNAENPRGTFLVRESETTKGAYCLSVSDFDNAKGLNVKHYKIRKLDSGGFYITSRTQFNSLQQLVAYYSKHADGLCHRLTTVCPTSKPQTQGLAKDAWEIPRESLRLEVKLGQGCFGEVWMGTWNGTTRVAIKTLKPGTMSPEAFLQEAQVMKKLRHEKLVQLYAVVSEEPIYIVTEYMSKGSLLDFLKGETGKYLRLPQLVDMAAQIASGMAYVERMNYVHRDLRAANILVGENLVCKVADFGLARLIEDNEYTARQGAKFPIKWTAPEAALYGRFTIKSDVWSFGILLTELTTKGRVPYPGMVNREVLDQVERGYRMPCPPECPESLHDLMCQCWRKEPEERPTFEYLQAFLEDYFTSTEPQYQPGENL

Row | SMILES | IC50 [1] | IC50 (Rattus norvegicus) | other results
1 | COc1cc(Nc2c(C#N)cnc3cc(OC)c(OCCCN4CCOCC4)cc23)c(Cl)cc1Cl | 28 nM | 1200 nM | –
2 | COc1cc2ncc(C#N)c(Nc3cc(O)c(Cl)cc3Cl)c2cc1OC | 190 nM | – | –
3 | COc1cc(Nc2c(C#N)cnc3cc(OC)c(OC)cc23)c(F)cc1Cl | 66 nM | – | –
4 | CCN1CCN(CCCOc2cc3ncc(C#N)c(Nc4cc(OC)c(Cl)cc4Cl)c3cc2OC)CC1 | – | 130 nM | –
5 | COc1cc(Nc2c(C#N)cnc3cc(OCCCn4nccn4)c(OC)cc23)c(Cl)cc1Cl | 9.3 nM | 1900 nM | –
6 | CCOc1cc(Nc2c(C#N)cnc3cc(OC)c(OC)cc23)c(Cl)cc1Cl | 1200 nM | – | –
7 | COc1cc2c(Nc3ccc(Cl)cc3Cl)c(C#N)cnc2cc1OCCCN1CCOCC1 | – | 940 nM | –
8 | COc1cc(Nc2c(C#N)cnc3cc(OC)c(OC)cc23)ccc1Cl | 120 nM | – | –
9 | CCCN1CCN(CCCOc2cc3ncc(C#N)c(Nc4cc(OC)c(Cl)cc4Cl)c3cc2OC)CC1 | – | 160 nM | –
10 | COc1cc(Nc2c(C#N)cnc3cc(OC)c(OC)cc23)c(C)cc1Cl | 4 nM | – | –
11 | COc1cc(Nc2ccnc3cc(OC)c(OC)cc23)c(Cl)cc1Cl | 81 nM | – | –
12 | COc1cc(Nc2c(C#N)cnc3cc(OCCCN4CCN(C)CC4)c(OC)cc23)c(Cl)cc1Cl [BOSUTINIB] | – | 100 nM | IC50 (HT-29): 5000 nM; concentration at 1 h [3]: 3000 ng/mL; IC50 [4]: 4000 nM; concentration at 4 h [5]: 900 ng/mL
13 | CCOc1cc(Nc2c(C#N)cnc3cc(OC)c(OC)cc23)c(Cl)cc1C | > 5000 nM | – | –
14 | COc1cc(Nc2c(C#N)cnc3cc(OC)c(OC)cc23)c(Cl)cc1Cl | 4.3 nM | – | –
15 | COc1cc(Nc2c(C#N)cnc3cc(OC)c(OC)cc23)c(C)cc1C | 4.6 nM | – | –
16 | COc1cc(Nc2ncnc3cc(OC)c(OC)cc23)c(Cl)cc1Cl | 390 nM | – | –
17 | COc1cc(Nc2c(C#N)cnc3cc(OCCCNCCN4CCOCC4)c(OC)cc23)c(Cl)cc1Cl | 3 nM | 1200 nM | –
18 | COc1ccc(Cl)c(Nc2c(C#N)cnc3cc(OC)c(OC)cc23)c1 | 10 nM | – | –
19 | CCCOc1cc(Nc2c(C#N)cnc3cc(OC)c(OC)cc23)c(Cl)cc1Cl | > 5000 nM | – | –

The remaining compounds from weak to strong by IC50 [1], led by results:

Row | IC50 [1] | SMILES | IC50 (Rattus norvegicus) | other results
20 | 3 nM | COc1cc(Nc2c(C#N)cnc3cc(OC)c(OC)cc23)c(Br)cc1Cl | – | –
21 | 2.9 nM | COc1cc(Nc2c(C#N)cnc3cc(OC)c(OC)cc23)c(Cl)cc1C | – | –
22 | 2.5 nM | COc1cc(Nc2c(C#N)cnc3cc(OCCCCCN4CCOCC4)c(OC)cc23)c(Cl)cc1Cl | 320 nM | –
23 | 2.3 nM | COc1cc(Nc2c(C#N)cnc3cc(OCCCN(C)CCN(C)C)c(OC)cc23)c(Cl)cc1Cl | 650 nM | –
24 | 2.3 nM | COc1cc(Nc2c(C#N)cnc3cc(OCCN4CCOCC4)c(OC)cc23)c(Cl)cc1Cl | 190 nM | –
25 | 2.1 nM | COc1cc(Nc2c(C#N)cnc3cc(OCCCn4ccnc4)c(OC)cc23)c(Cl)cc1Cl | 1400 nM | –
26 | 1.9 nM | COc1cc(Nc2c(C#N)cnc3cc(OCCCn4ccnn4)c(OC)cc23)c(Cl)cc1Cl | 920 nM | concentration at 1 h [3]: 1300 ng/mL; concentration at 4 h [5]: 300 ng/mL
27 | 1.7 nM | COc1cc(Nc2c(C#N)cnc3cc(OCCCN4CCOCC4)c(OC)cc23)c(C)cc1C | 160 nM | –
28 | 1.6 nM | COc1ccc(Cl)c(Nc2c(C#N)cnc3cc(OCCCN4CCOCC4)c(OC)cc23)c1 | 150 nM | –
29 | 1.4 nM | COc1cc(Nc2c(C#N)cnc3cc(OCCCN4CCCN(C)CC4)c(OC)cc23)c(Cl)cc1Cl | 350 nM | –
30 | 1.4 nM | COc1cc(Nc2c(C#N)cnc3cc(OCCCN4CC(C)N(C)C(C)C4)c(OC)cc23)c(Cl)cc1Cl (stereo not drawn) | 220 nM | –
31 | 1.3 nM | COc1cc(Nc2c(C#N)cnc3cc(OCCCCN4CCOCC4)c(OC)cc23)c(Cl)cc1Cl | 330 nM | –
32 | 1.2 nM | COc1cc(Nc2c(C#N)cnc3cc(OCCCN4CCOCC4)c(OC)cc23)c(C)cc1Cl | 150 nM | –
33 | 1.2 nM | COc1cc(Nc2c(C#N)cnc3cc(OCCCN4CCCCC4)c(OC)cc23)c(Cl)cc1Cl | 150 nM | –
34 | 1.1 nM | COc1cc(Nc2c(C#N)cnc3cc(OCCCN4CCNCC4)c(OC)cc23)c(Cl)cc1Cl | 1700 nM | –
35 | 1.1 nM | COc1cc(Nc2c(C#N)cnc3cc(OCCCN4CCOCC4)c(OC)cc23)c(Cl)cc1C | 100 nM | –
36 | 0.95 nM | COc1cc(Nc2c(C#N)cnc3cc(OCCCN4CCOCC4)c(OC)cc23)c(Br)cc1Cl | 71 nM | –
37 | 0.8 nM | COc1cc(Nc2c(C#N)cnc3cc(OCCCN4CCOCC4)c(OC)cc23)c(Cl)cc1Cl | 140 nM | concentration at 4 h [2]: 100 ng/mL; concentration at 1 h [3]: 100 ng/mL
38 | 0.76 nM | COc1cc(Nc2c(C#N)cnc3cc(OCCCN4CCN(CCO)CC4)c(OC)cc23)c(Cl)cc1Cl | 610 nM | –
39 | 0.64 nM | COc1cc(Nc2c(C#N)cnc3cc(OCCCN4CCC(O)CC4)c(OC)cc23)c(Cl)cc1Cl | 840 nM | –
